Laboratory results from patent publication US10576147B2, “Muramyl peptide derivative compound, synthesis and uses thereof” (BHARAT BIOTECH INTERNATIONAL LIMITED, priority 2015, dated 2020).

How the values were obtained:
Wistar rats = test: Maximum Tolerated Dose test; format: in vivo, rat
Protocol: Wistar rats (n=6, 3M & 3F) were administered intramuscularly (i.m) with MDP-MN containing fixed adjuvant dose of 10, 50 and 100 μg/animal/200 μl in an ascending manner. Animals were observed daily for a period of 14 days for clinical signs & mortality. Body weight was measured daily. Food and water consumed by animals were also monitored daily for any abnormalities & Food and water intake per animal was also calculated. Body temperature was measured for every 4 hours upto 24 hrs, later once in daily upto 7 days and then followed by alternate day upto day 14. Rats were sacrificed on day 14 and organs/tissues such as site of injection, spleen, thymus, brain, lungs, Heart, liver, Kidney were collected and done macroscopic examination. […] It indicates rats are tolerable even at high dose (100 μg/animal). Blood was collected between 24-36 hrs were tested for CRP levels, after the injection. […] Moreover, absence of pro-inflammatory cytokines, CRP levels indicates, MDP-MN is not pyrogenic.

BALB/c mice [1] = test: OVA-specific IgG after immunization (indirect ELISA); format: in vivo; details: s.c. Days 1 and 15
Protocol: Male BALB/c mice were immunized subcutaneously with OVA 100 μg alone or with OVA 100 μg dissolved in saline containing analogues (7.5, 15 or 30 μg) on Days 1 and 15. Sera were collected 2 weeks after the last immunization. OVA-specific IgG antibodies in the sera were measured by an Indirect ELISA. The values are presented as log 2 titre.

mouse = test: rPvRII specific IgG endpoint titer; format: in vivo; details: MDP-MN 10 μg/mouse
BALB/c mice [2] = test: HBsAg specific total IgG endpoint titer (ELISA); format: in vivo
Protocol: Female BALB/c mice (6-8 week old, n=6/group) were vaccinated intramuscularly (i.m, at two quadriceps) on Day 0 & Day 28 with vehicle control or Hepatitis B antigen (20 μg/mouse/dose/100 μl, 50 μl per quadricep) with and without MDP-MN (10 μg or 50 or 100 μg/mouse/dose/100 μl) diluted in Phosphate buffered saline. Prior to immunization, Hepatitis B surface antigen was mixed with MDP-MN, by gentle agitation (1:1 ratio), under sterile conditions. Mice were bled and euthanized on Day 42. Blood was collected & serum was isolated to evaluate analyze antigen specific total IgG antibody titer (as in example 3.1.2) and antibody subclasses (isotypes namely IgG1 or IgG2a or IgG3, as in example 3.1.3).
Serial dilutions of individual serum samples ([…] ranging from 1:50 to 819200) were used to determine the endpoint titer of antigen specific total IgG antibody titer by ELISA. Details of assay protocol as described below.
For analysis of antigen specific antibody titer, hepatitis B surface antigen was suspended in 50 mM carbonate bicarbonate buffer, pH 9.6 and coated at a concentration (1 μg/ml, 100 μl/well) in 96 well plates and kept at 4° C. for overnight. Next day, plates were washed with washing buffer (PBST-Phosphate buffered saline, pH 7.4 with 0.05% Tween) and blocked with blocking buffer (PBS with 1% BSA) at RT for 1-2 hr. ELISA plates were washed again with wash buffer (PBS, 0.05% Tween™20) and added serially diluted (in PBS, 0.1% BSA, 0.05% Tween™20, 0.02% sodium azide) sera from hyper immunized mice and incubated at RT for 1 hr. After incubation, wells were again washed and added Goat Anti-mouse IgG HRP conjugate antibody at a dilution of 1:5000 & incubated for 1 hr at RT. Later, wells were washed, and developed with OPD (O-phenylene diamine) as a substrate for 15 min. Reaction was stopped using 2N H2SO4. Absorbance was read at 490 nm. Threshold (Mean+3SD) was established by taking the absorbance of negative control (PBS) group, followed by the reactive index (ratio of absorbance at a particular dilution & threshold), so as to determine end point titer. […]

BALB/c mice [3] = test: TH1:TH2 index from HBsAg specific IgG isotypes; format: in vivo
Description: It is known that, IgG subclasses produced after the immunization against given antigen, primarily determines the function of the antibody or indirectly measures the relative contribution of TH1 versus TH2 type cytokine induction. More specifically, production of IgG1 antibodies induces TH2 type cytokines, whereas, production of IgG2a & IgG3 antibodies induces TH1 type cytokines. […] In this context, in the present invention, we determined the levels of IgG isotypes (IgG1, IgG2a & IgG3), raised against HBsAg in the presence or absence of MDP-MN (at 10 & 50 μg/mouse) and calculated TH1: TH2 index then calculated as ([IgG2a+IgG3]/2)/(IgG1). Details of assay protocol as described below as in example 3.1.3. According to such calculation, an index value <1 stands for a TH2 polarization; an index value >1 stands for a TH1 polarization.
Analysis of antigen specific IgG antibody subclasses (isotypes namely IgG1 or IgG2a or IgG3) was performed as mentioned in example 3.1.2, except at one step, where goat anti-mouse IgG1 or IgG2a or IgG3 HRP was used at a dilution of 1:5000 (in place of goat anti-mouse IgG) TH1:TH2 index obtained at 10 & 50 μg/mouse of MDP-MN is as shown in FIG. 5c.

C[C@H](NC(=O)[C@@H](C)O[C@H]1[C@H](O)[C@@H](CO)OC(O)[C@@H]1NC(=O)[C@H](O)CO)C(=O)N[C@H](CCC(=O)O)C(N)=O (stereo partly drawn) [MDP-MN, (4R)-5-amino-4-((2S)-2-((2R)-2-(((3R,4R,5S,6R)-3-((2,3-dihydroxypropanamido))-2,5-dihydroxy-6-(hydroxymethyl)tetrahydro-2H-pyran-4-yl)oxy)propanamido)propanamido)-5-oxopentanoic acid]
tolerated dose (Wistar rats; Wistar rats, i.m., 14 days observation, highest dose tested): 100 μg/animal
CRP levels (Wistar rats; blood 24-36 hrs after injection, high dose (100 μg/animal), normal in rats 200-550 μg/ml): normal
macroscopic examination of organs/tissues (Wistar rats; day 14, site of injection, spleen, thymus, brain, lungs, heart, liver, kidney): No significant lesions or abnormalities
clinical signs (Wistar rats; even at tested high dose (100 μg/animal), 14 days): no significant clinical signs
weight gain (Wistar rats; high dose (100 μg/animal), compared to untreated animals): weight gain is less
mortality (Wistar rats; i.m. 10, 50 and 100 μg/animal, 14 days): no mortality
tolerated dose (Wistar rats; rat, Maximum Tolerated Dose test): ≤ 100 μg/rat
pyrogenicity (conclusion from cytokines and CRP levels) (Wistar rats; rat, in vivo): not pyrogenic
body temperature (Wistar rats; upto 14 days): no temperature raise
Log(2) IgG Antibody Titre (BALB/c mice [1]; adjuvant 7.5 μg per mouse with OVA 100 μg): nearly equal antibody titer
Log(2) IgG Antibody Titre (BALB/c mice [1]; adjuvant 15 μg per mouse with OVA 100 μg): highest serum IgG responses
Log(2) IgG Antibody Titre (BALB/c mice [1]; adjuvant 30 μg per mouse with OVA 100 μg): highest serum IgG responses
increase of antibody titer vs rPvRII alone (mouse): 4 fold
increase of antibody titer vs HBsAg alone (BALB/c mice [2]; MDP-MN 50 μg/mouse): 4 fold
increase of antibody titer vs HBsAg alone (BALB/c mice [2]; MDP-MN 100 μg/mouse): 8 fold
increase of humoral response (TH2) (BALB/c mice [2]; mice vaccinated with Hepatitis B surface antigen in presence of MDP-MN, dose dependent): 4-8 fold
TH1:TH2 index ([IgG2a+IgG3]/2)/(IgG1) (BALB/c mice [3]; HBsAg in the presence of MDP-MN (10 & 50 μg/mouse)): 2.5
TH1 type cytokines induction (BALB/c mice [3]; mice vaccinated with Hepatitis B surface antigen in presence of MDP-MN): induced TH1 type cytokines
